pEC50: −log10 of the molar value.
Columns and labels:
[1] = target: T1, human GLP-1 receptor (Homo sapiens, UniProt P43220); experiment: cAMP production (HTRF) in CHO-K1 cells expressing GLP-1 receptor; format: cell-based
T1 construct: expressed in transfected cells; host or cells: CHO-K1 cells

[2] = target: T2, human GLP-2 receptor (Homo sapiens, UniProt O95838); experiment: cAMP production (HTRF) in CHO-K1 cells expressing GLP-2 receptor; format: cell-based; conditions: for Emax: CHO-K1, control peptide GLP-2 (1-34), read-out: Max efficacy in % of control peptide; for Emax / pEC50: cAMP; for pEC50: CHO-K1 human GLP-2 receptor
T2 construct: expressed in transfected cells; host or cells: CHO-K1 cells
T2 sequence (O95838 1-553): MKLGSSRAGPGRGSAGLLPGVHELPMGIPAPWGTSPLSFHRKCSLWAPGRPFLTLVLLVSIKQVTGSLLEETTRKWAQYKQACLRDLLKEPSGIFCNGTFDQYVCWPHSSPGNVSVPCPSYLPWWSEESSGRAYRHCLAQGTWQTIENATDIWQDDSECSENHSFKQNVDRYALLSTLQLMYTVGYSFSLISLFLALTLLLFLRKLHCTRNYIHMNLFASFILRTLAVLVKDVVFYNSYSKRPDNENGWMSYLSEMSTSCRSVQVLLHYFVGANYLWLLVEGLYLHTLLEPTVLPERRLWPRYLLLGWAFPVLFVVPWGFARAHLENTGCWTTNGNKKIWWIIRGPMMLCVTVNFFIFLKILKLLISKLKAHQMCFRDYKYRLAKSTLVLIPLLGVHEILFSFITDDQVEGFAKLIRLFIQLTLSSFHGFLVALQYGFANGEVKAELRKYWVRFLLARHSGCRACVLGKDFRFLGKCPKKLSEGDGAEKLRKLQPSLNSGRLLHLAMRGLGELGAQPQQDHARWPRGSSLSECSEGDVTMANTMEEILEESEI
Method: CHO-K1 cells expressing the human GLP-2 receptor grown in media without antibiotic were detached by gentle flushing with PBS-EDTA (5 mM EDTA), recovered by centrifugation and resuspended in assay buffer (KRH: 5 mM KCl, 1.25 mM MgSO4, 124 mM NaCl, 25 mM HEPES, 13.3 mM Glucose, 1.25 mM KH2PO4, 1.45 mM CaCl2), 0.5 g/l BSA).
12 μl of cells were mixed with 12 μl of the test compound (solubilized in PBS/0.5% BSA and finally diluted from a stock solution of 1 mM) at increasing concentrations in 96 wells plates and then incubated 30 min at room temperature. cAMP production was determined after addition of a lysis buffer and 1 hour incubation, by use of competitive immunoassay using cryptate-labeled anti-cAMP and d2-labeled cAMP (HTRF kit from CisBio) with Delta F percentage values calculated according to the manufacturer specification. Dose response curves were performed in parallel with test compounds, and reference compounds.
The HTRF technology is a titration assay based on a competition between labeled cAMP (exogenous) and cAMP produced by the cell after activation of the […]. The dynamic range of the assay was 3-4 fold meaning that the linear range (which enables conversion from raw data to nM of cAMP) is within that range. […] All experiments were conducted in the presence of the non-selective phosphodiesterase inhibitor IBMX (1 mM in final concentration).
The test compounds were tested in a concentration range from […] to 10^−7M
Data is presented as mean values.

[3] = target: T3, FPR2 receptor (Homo sapiens, UniProt P25090); conditions: cited from earlier work
T3 sequence (P25090 1-351): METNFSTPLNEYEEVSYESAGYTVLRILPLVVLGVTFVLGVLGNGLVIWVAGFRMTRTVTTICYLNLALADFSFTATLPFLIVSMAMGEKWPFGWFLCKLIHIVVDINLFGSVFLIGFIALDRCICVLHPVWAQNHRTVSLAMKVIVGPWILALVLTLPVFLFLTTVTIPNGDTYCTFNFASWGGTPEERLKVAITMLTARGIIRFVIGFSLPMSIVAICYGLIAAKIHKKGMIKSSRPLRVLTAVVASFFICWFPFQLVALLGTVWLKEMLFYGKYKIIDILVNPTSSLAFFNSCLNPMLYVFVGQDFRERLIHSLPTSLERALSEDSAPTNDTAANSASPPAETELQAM

T1 sequence (P43220 24-463): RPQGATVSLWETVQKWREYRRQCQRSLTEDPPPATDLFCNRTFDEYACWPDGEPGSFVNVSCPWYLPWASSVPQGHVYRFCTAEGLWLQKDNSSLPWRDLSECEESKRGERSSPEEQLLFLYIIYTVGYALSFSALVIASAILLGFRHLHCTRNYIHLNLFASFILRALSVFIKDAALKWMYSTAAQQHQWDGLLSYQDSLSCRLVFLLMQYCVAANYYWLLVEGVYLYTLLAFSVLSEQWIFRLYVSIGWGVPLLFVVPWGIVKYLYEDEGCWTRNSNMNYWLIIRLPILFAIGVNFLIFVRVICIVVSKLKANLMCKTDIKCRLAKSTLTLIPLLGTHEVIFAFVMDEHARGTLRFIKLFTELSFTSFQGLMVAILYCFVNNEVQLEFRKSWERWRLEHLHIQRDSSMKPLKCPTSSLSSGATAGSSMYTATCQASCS

Molecule	Emax [2] [%]	pEC50 [2]	other results
CC[C@H](C)[C@H](NC(=O)[C@H](Cc1ccccc1)NC(=O)[C@H](CCC(=O)O)NC(=O)[C@H](CCCCN)NC(=O)[C@H](C)NC(=O)[C@H](C)NC(=O)[C@H](CCC(N)=O)NC(=O)CNC(=O)[C@H](CCC(=O)O)NC(=O)[C@H](CC(C)C)NC(=O)[C@H](Cc1ccc(O)cc1)NC(=O)[C@H](CO)NC(=O)[C@H](CO)NC(=O)[C@@H](NC(=O)[C@H](CC(=O)O)NC(=O)[C@H](CO)NC(=O)[C@@H](NC(=O)[C@H](Cc1ccccc1)NC(=O)[C@@H](NC(=O)CNC(=O)[C@H](CCC(=O)O)NC(=O)CNC(=O)[C@H](Cc1c[nH]cn1)NC(C)=O)[C@@H](C)O)[C@@H](C)O)C(C)C)C(=O)N[C@@H](C)C(=O)N[C@@H](Cc1c[nH]c2ccccc12)C(=O)N[C@@H](CC(C)C)C(=O)N[C@H](C(=O)N[C@@H](CCCCN)C(=O)NCC(=O)N[C@@H](CCCNC(=N)N)C(=O)NCC(=O)N[C@@H](CCCCNC(=O)[C@H](CCCCN)NC(=O)[C@H](CCCCN)NC(C)=O)C(N)=O)C(C)C [Analogue 2]			pEC50 [1]: 10.40; Emax ([1]; CHO-K1, read-out: Max efficacy in % of control peptide): 102%
CC[C@H](C)[C@H](NC(=O)[C@H](Cc1ccccc1)NC(=O)[C@H](CC(=O)O)NC(=O)[C@H](CCCNC(=N)N)NC(=O)[C@H](C)NC(=O)[C@H](C)NC(=O)[C@H](CC(C)C)NC(=O)[C@H](CC(N)=O)NC(=O)[C@H](CC(=O)O)NC(=O)[C@H](CC(C)C)NC(=O)[C@@H](NC(=O)[C@@H](NC(=O)[C@H](CC(N)=O)NC(=O)[C@H](CCSC)NC(=O)[C@H](CCC(=O)O)NC(=O)[C@H](CC(=O)O)NC(=O)[C@H](CO)NC(=O)[C@H](Cc1ccccc1)NC(=O)[C@H](CO)NC(=O)CNC(=O)[C@H](CC(=O)O)NC(=O)[C@H](C)NC(=O)[C@H](Cc1c[nH]cn1)NC(C)=O)[C@@H](C)O)[C@@H](C)CC)C(=O)N[C@@H](CC(N)=O)C(=O)N[C@@H](Cc1c[nH]c2ccccc12)C(=O)N[C@@H](CC(C)C)C(=O)N[C@H](C(=O)N[C@@H](CCC(N)=O)C(=O)N[C@H](C(=O)N[C@@H](CCCCN)C(=O)N[C@H](C(=O)N[C@H](C(=O)N[C@@H](CC(=O)O)C(=O)N[C@@H](CCCCNC(=O)[C@H](CCCCN)NC(=O)[C@H](CCCCN)NC(C)=O)C(N)=O)[C@@H](C)O)[C@@H](C)CC)[C@@H](C)O)[C@@H](C)CC [Analogue 3]	101	8.47	
CC[C@H](C)[C@H](NC(=O)[C@H](Cc1ccccc1)NC(=O)[C@H](CC(=O)O)NC(=O)[C@H](CCCNC(=N)N)NC(=O)[C@H](C)NC(=O)[C@H](C)NC(=O)[C@H](CC(C)C)NC(=O)[C@H](CC(N)=O)NC(=O)[C@H](CC(=O)O)NC(=O)[C@H](CC(C)C)NC(=O)[C@@H](NC(=O)[C@@H](NC(=O)[C@H](CC(N)=O)NC(=O)[C@H](CCSC)NC(=O)[C@H](CCC(=O)O)NC(=O)[C@H](CC(=O)O)NC(=O)[C@H](CO)NC(=O)[C@H](Cc1ccccc1)NC(=O)[C@H](CO)NC(=O)CNC(=O)[C@H](CC(=O)O)NC(=O)CNC(=O)[C@H](Cc1c[nH]cn1)NC(C)=O)[C@@H](C)O)[C@@H](C)CC)C(=O)N[C@@H](CC(N)=O)C(=O)N[C@@H](Cc1c[nH]c2ccccc12)C(=O)N[C@@H](CC(C)C)C(=O)N[C@H](C(=O)N[C@@H](CCC(N)=O)C(=O)N[C@H](C(=O)N[C@@H](CCCCN)C(=O)N[C@H](C(=O)N[C@H](C(=O)N[C@@H](CC(=O)O)C(=O)N[C@@H](CCCCNC(=O)[C@H](CCCCN)NC(=O)[C@H](CCCCN)NC(C)=O)C(N)=O)[C@@H](C)O)[C@@H](C)CC)[C@@H](C)O)[C@@H](C)CC [Analogue 4]	102	8.23	
CC[C@H](C)[C@H](NC(=O)[C@H](Cc1ccccc1)NC(=O)[C@H](CC(=O)O)NC(=O)[C@H](CCCNC(=N)N)NC(=O)[C@H](C)NC(=O)[C@H](C)NC(=O)[C@H](CC(C)C)NC(=O)[C@H](CC(N)=O)NC(=O)[C@H](CC(=O)O)NC(=O)[C@H](CC(C)C)NC(=O)[C@@H](NC(=O)[C@@H](NC(=O)[C@H](CC(N)=O)NC(=O)[C@H](CCSC)NC(=O)[C@H](CCC(=O)O)NC(=O)[C@H](CC(=O)O)NC(=O)[C@H](CO)NC(=O)[C@H](Cc1ccccc1)NC(=O)[C@H](CO)NC(=O)CNC(=O)[C@H](CC(=O)O)NC(=O)[C@@H](C)NC(=O)[C@H](Cc1c[nH]cn1)NC(C)=O)[C@@H](C)O)[C@@H](C)CC)C(=O)N[C@@H](CC(N)=O)C(=O)N[C@@H](Cc1c[nH]c2ccccc12)C(=O)N[C@@H](CC(C)C)C(=O)N[C@H](C(=O)N[C@@H](CCC(N)=O)C(=O)N[C@H](C(=O)N[C@@H](CCCCN)C(=O)N[C@H](C(=O)N[C@H](C(=O)N[C@@H](CC(=O)O)C(=O)N[C@@H](CCCCNC(=O)[C@H](CCCCN)NC(=O)[C@H](CCCCN)NC(C)=O)C(N)=O)[C@@H](C)O)[C@@H](C)CC)[C@@H](C)O)[C@@H](C)CC [Analogue 5]	95.1	8.05	
CC[C@H](C)[C@H](NC(=O)[C@H](Cc1ccccc1)NC(=O)[C@H](CC(=O)O)NC(=O)[C@H](CCCNC(=N)N)NC(=O)[C@H](C)NC(=O)[C@H](C)NC(=O)[C@H](CC(C)C)NC(=O)[C@H](CC(N)=O)NC(=O)[C@H](CC(=O)O)NC(=O)[C@H](CC(C)C)NC(=O)[C@@H](NC(=O)[C@@H](NC(=O)[C@H](CC(N)=O)NC(=O)[C@H](CCSC)NC(=O)[C@H](CCC(=O)O)NC(=O)[C@H](CC(=O)O)NC(=O)[C@H](CO)NC(=O)[C@H](Cc1ccccc1)NC(=O)[C@H](CO)NC(=O)CNC(=O)[C@H](CC(=O)O)NC(=O)[C@H](C)NC(=O)[C@@H](N)Cc1c[nH]cn1)[C@@H](C)O)[C@@H](C)CC)C(=O)N[C@@H](CC(N)=O)C(=O)N[C@@H](Cc1c[nH]c2ccccc12)C(=O)N[C@@H](CC(C)C)C(=O)N[C@H](C(=O)N[C@@H](CCC(N)=O)C(=O)N[C@H](C(=O)N[C@@H](CCCCN)C(=O)N[C@H](C(=O)N[C@H](C(=O)N[C@@H](CC(=O)O)C(=O)N[C@@H](CCCNC(=N)N)C(=O)O)[C@@H](C)O)[C@@H](C)CC)[C@@H](C)O)[C@@H](C)CC [GLP-2 (1-34), reference compound]			Hill Slope ([2]; cAMP dose response curve): 0.78
Ac-Ala-Met-Val-Ser-Glu-Phe-Leu-Lys-Gln-Ala-Trp-NH2 (Ac-AMVSEFLKQAW-NH2; listed as Homo sapiens) [Control peptide 2]			agonism at the FPR2 receptor as described in the literature [3]: described as agonist to the FPR2 receptor- none of them as significantly potent
Ac-Ala-Met-Val-Ser-Glu-Phe-Leu-Lys-Gln-Ala-Trp-Phe-Ile-Glu-Asn-Glu-Glu-Gln-Glu-Tyr-Val-Gln-Thr-Val-Lys-OH (Ac-AMVSEFLKQAWFIENEEQEYVQTVK-OH; listed as Homo sapiens) [Control peptide 1]			agonism at the FPR2 receptor as described in the literature [3]: described as agonist to the FPR2 receptor- none of them as significantly potent

Source: US11141455B2, “Peptide analogues with branched amino acid probe(s)” (priority 2014, dated 2021)
